{"source": "patent US4644055A", "about": "“Method for preparing specific inhibitors of virus-specified proteases” (priority 1984, dated 1987)", "key": {"[1]": {"tested_on": "human poliomyelitisvirus type 2", "type": "cell-based, poliovirus type 2", "design": "key to Comparative Experiments Involving Other Peptide Halomethyl Ketones: Activity: -: no activity; +/-: low activity; +: active at 100 μg/mL; ++: active at 50 μg/mL; +++: active at 10 μg/mL; ++++: active at <5 μg/mL"}, "chymotrypsin": {"target": "chymotrypsin (Bos taurus, UniProt P00766)", "conditions": "inhibitor concentration 600 μg/mL; Ito et al. 1972; cited from earlier work"}, "human rhinovirus type 1A [2]": {"tested_on": "human rhinovirus type 1A", "type": "cell-based"}, "human rhinovirus type 1A [3]": {"tested_on": "human rhinovirus type 1A", "test": "Plaque inhibition assay, rhinovirus", "type": "cell-based"}, "poliovirus type 2": {"tested_on": "poliovirus type 2", "type": "cell-based"}, "poliovirus": {"tested_on": "poliovirus", "conditions": "cited from earlier work"}, "echovirus-12": {"tested_on": "echovirus-12", "conditions": "Korant 1972; cited from earlier work"}}, "note": "Where two headings read alike, the source gives them in different places. Starred links: 1 amine or outer side, 2 acyl side, 3 side chain; linkers in the order of their positions; H or OH if unused. *: point of attachment. code Z = not defined here; MeOSuc = COC(=O)CCC(=O)*; CH2 = C([*:1])[*:2]; CH2Cl = ClC*", "data": [{"compound": "Z--Phe--Lys--Ala--LeuCH2 Cl ({code Z}-FKAL-CH2Cl; reading uncertain; also: printed as Z--Phe--Lys--Ala--LeuCH2 Cl)", "values": [{"measurement": "Comparative Experiments Involving Other Peptide Halomethyl Ketones: Activity", "setting": "[1]", "result": "+ (key: -: no activity; +/-: low activity; +: active at 100 μg/mL; ++: active at 50 μg/mL; +++: active at 10 μg/mL; ++++: active at <5 μg/mL)"}]}, {"compound": "Ac-Leu-Leu-PheCH3", "values": [{"measurement": "inhibition of chymotrypsin", "setting": "chymotrypsin", "result": "no inhibition was observed"}]}, {"compound": "Z--Phe--Gly--Phe--LeuCH2 Cl ({code Z}-FGFL-CH2Cl; reading uncertain; also: printed as Z--Phe--Gly--Phe--LeuCH2 Cl)", "values": [{"measurement": "Protease-Inhibiting Activity of Selected Peptide Halomethyl Ketones: Activity", "setting": "[1]", "result": "++ (key: -: no activity; +/-: low activity; +: active at 100 μg/mL; ++: active at 50 μg/mL; +++: active at 10 μg/mL; ++++: active at <5 μg/mL)"}]}, {"compound": "Z--Phe--Phe--Ala--LeuCH2 Cl ({code Z}-FFAL-CH2Cl; reading uncertain; also: printed as Z--Phe--Phe--Ala--LeuCH2 Cl)", "values": [{"measurement": "Comparative Experiments Involving Other Peptide Halomethyl Ketones: Activity", "setting": "[1]", "result": "+/-"}]}, {"compound": "Z--Gln--Gly--Ala--LeuCH2 Cl ({code Z}-QGAL-CH2Cl; reading uncertain; also: printed as Z--Gln--Gly--Ala--LeuCH2 Cl)", "values": [{"measurement": "Comparative Experiments Involving Other Peptide Halomethyl Ketones: Activity", "setting": "[1]", "result": "+ (key: -: no activity; +/-: low activity; +: active at 100 μg/mL; ++: active at 50 μg/mL; +++: active at 10 μg/mL; ++++: active at <5 μg/mL)"}]}, {"compound": "Z-Phe-Gly-Ala-TyrCH2 Cl ({code Z}-FGAY-CH2Cl; reading uncertain; also: printed as Z-Phe-Gly-Ala-TyrCH2 Cl) [Z--Phe--Gly--Ala--TyrCH2 Cl]", "values": [{"measurement": "Protease-Inhibiting Activity of Selected Peptide Halomethyl Ketones: Activity", "setting": "[1]", "result": "++ (key: -: no activity; +/-: low activity; +: active at 100 μg/mL; ++: active at 50 μg/mL; +++: active at 10 μg/mL; ++++: active at <5 μg/mL)"}]}, {"compound": "Z-Phe-Gly-Ser-LeuCH2 Cl ({code Z}-FGSL-CH2Cl; reading uncertain; also: printed as Z-Phe-Gly-Ser-LeuCH2 Cl) [Z--Phe--Gly--Ser--LeuCH2 Cl]", "values": [{"measurement": "Protease-Inhibiting Activity of Selected Peptide Halomethyl Ketones: Activity", "setting": "[1]", "result": "++ (key: -: no activity; +/-: low activity; +: active at 100 μg/mL; ++: active at 50 μg/mL; +++: active at 10 μg/mL; ++++: active at <5 μg/mL)"}]}, {"compound": "MeOSuc-Phe-Gly-Leu-LeuCH3 (MeOSuc-FGLL-CH2; SMILES COC(=O)CCC(=O)N[C@@H](Cc1ccccc1)C(=O)NCC(=O)N[C@@H](CC(C)C)C(=O)N[C@@H](CC(C)C)C(C)=O)", "values": [{"measurement": "activity in the viral cleavage assay", "setting": "[1]; 50 μg/mL", "result": "active"}]}, {"compound": "Z--Phe--Leu--Ala--LeuCH2 Cl ({code Z}-FLAL-CH2Cl; reading uncertain; also: printed as Z--Phe--Leu--Ala--LeuCH2 Cl)", "values": [{"measurement": "Protease-Inhibiting Activity of Selected Peptide Halomethyl Ketones: Activity", "setting": "[1]", "result": "++ (key: -: no activity; +/-: low activity; +: active at 100 μg/mL; ++: active at 50 μg/mL; +++: active at 10 μg/mL; ++++: active at <5 μg/mL)"}]}, {"compound": "Z-Phe-Gly-Ala-LeuCH2 Cl ({code Z}-FGAL-CH2Cl; reading uncertain; also: printed as Z-Phe-Gly-Ala-LeuCH2 Cl) [Z--Phe--Gly--Ala--LeuCH2 Cl]", "values": [{"measurement": "Protease-Inhibiting Activity of Selected Peptide Halomethyl Ketones: Activity", "setting": "[1]", "result": "+++ (key: -: no activity; +/-: low activity; +: active at 100 μg/mL; ++: active at 50 μg/mL; +++: active at 10 μg/mL; ++++: active at <5 μg/mL)"}]}, {"compound": "Z-Phe-Ser-Ala-LeuCH2 Cl ({code Z}-FSAL-CH2Cl; reading uncertain; also: printed as Z-Phe-Ser-Ala-LeuCH2 Cl) [Z--Phe--Ser--Ala--LeuCH2 Cl]", "values": [{"measurement": "Comparative Experiments Involving Other Peptide Halomethyl Ketones: Activity", "setting": "[1]", "result": "+ (key: -: no activity; +/-: low activity; +: active at 100 μg/mL; ++: active at 50 μg/mL; +++: active at 10 μg/mL; ++++: active at <5 μg/mL)"}]}, {"compound": "Z-Phe-Gly-Ala-LeuCH3 ({code Z}-FGAL-CH2; reading uncertain; also: printed as Z-Phe-Gly-Ala-LeuCH3)", "values": [{"measurement": "activity in the viral cleavage assay", "setting": "[1]; 50 μg/mL", "result": "active"}, {"measurement": "activity in the viral cleavage assay", "setting": "[1]; test concentration 100 μg/mL", "result": "demonstrated activity"}, {"measurement": "activity in the viral cleavage assay", "setting": "human rhinovirus type 1A [2]; test concentration 100 μg/mL", "result": "demonstrated activity"}, {"measurement": "plaque reduction", "setting": "human rhinovirus type 1A [3]; 50 μg/mL in agar overlay, compared to control plates", "result": "> 90", "unit": "%"}, {"measurement": "plaque reduction", "setting": "poliovirus type 2", "result": "> 90", "unit": "%"}]}, {"compound": "Z-Phe-Gly-Leu-LeuCH3 [Z--Phe--Gly--Leu--LeuCH3]", "values": [{"measurement": "activity in the viral cleavage assay", "setting": "[1]", "result": "demonstrated activity"}, {"measurement": "activity in the viral cleavage assay", "setting": "human rhinovirus type 1A [2]", "result": "demonstrated activity"}]}, {"compound": "Z--Phe--Pro--Ala--LeuCH2 Cl ({code Z}-FPAL-CH2Cl; reading uncertain; also: printed as Z--Phe--Pro--Ala--LeuCH2 Cl)", "values": [{"measurement": "Comparative Experiments Involving Other Peptide Halomethyl Ketones: Activity", "setting": "[1]", "result": "+ (key: -: no activity; +/-: low activity; +: active at 100 μg/mL; ++: active at 50 μg/mL; +++: active at 10 μg/mL; ++++: active at <5 μg/mL)"}]}, {"compound": "Z-Phe-Gly-Ala-ValCH2 Cl ({code Z}-FGAV-CH2Cl; reading uncertain; also: printed as Z-Phe-Gly-Ala-ValCH2 Cl) [Z--Phe--Gly--Ala--ValCH2 Cl]", "values": [{"measurement": "Protease-Inhibiting Activity of Selected Peptide Halomethyl Ketones: Activity", "setting": "[1]", "result": "++ (key: -: no activity; +/-: low activity; +: active at 100 μg/mL; ++: active at 50 μg/mL; +++: active at 10 μg/mL; ++++: active at <5 μg/mL)"}]}, {"compound": "Z--Phe--Gly--Gly--LeuCH2 Cl ({code Z}-FGGL-CH2Cl; reading uncertain; also: printed as Z--Phe--Gly--Gly--LeuCH2 Cl)", "values": [{"measurement": "Protease-Inhibiting Activity of Selected Peptide Halomethyl Ketones: Activity", "setting": "[1]", "result": "+++ (key: -: no activity; +/-: low activity; +: active at 100 μg/mL; ++: active at 50 μg/mL; +++: active at 10 μg/mL; ++++: active at <5 μg/mL)"}]}, {"compound": "Z--Leu--Gly--Ala--LeuCH2 Cl ({code Z}-LGAL-CH2Cl; reading uncertain; also: printed as Z--Leu--Gly--Ala--LeuCH2 Cl)", "values": [{"measurement": "Protease-Inhibiting Activity of Selected Peptide Halomethyl Ketones: Activity", "setting": "[1]", "result": "+++ (key: -: no activity; +/-: low activity; +: active at 100 μg/mL; ++: active at 50 μg/mL; +++: active at 10 μg/mL; ++++: active at <5 μg/mL)"}]}, {"compound": "Cc1ccc(S(=O)(=O)NC(CCCCN)C(=O)CCl)cc1", "note": "(stereo not drawn) [TLCK, tolylsulfonyllysyl chloromethyl ketone]", "values": [{"measurement": "inhibition of poliovirus protein processing / protease cleavage of poliovirus-specific polypeptides", "setting": "poliovirus", "result": "inhibition"}, {"measurement": "inhibition of echovirus-12 protein processing", "setting": "echovirus-12", "result": "inhibition"}]}, {"compound": "Cc1ccc(S(=O)(=O)N[C@@H](Cc2ccccc2)C(=O)CCl)cc1", "note": "[TPCK, tolylsulfonylphenylalanyl chloromethyl ketone]", "values": [{"measurement": "inhibition of poliovirus protein processing / protease cleavage of poliovirus-specific polypeptides", "setting": "poliovirus", "result": "inhibition"}, {"measurement": "inhibition of echovirus-12 protein processing", "setting": "echovirus-12", "result": "inhibition"}]}, {"compound": "Z-Phe-Gly-Ala-LeuCH2 Br ({code Z}-FGAL-CH2Br; reading uncertain; also: printed as Z-Phe-Gly-Ala-LeuCH2 Br) [Z--Phe--Gly--Ala--LeuCH2 Br]", "values": [{"measurement": "Protease-Inhibiting Activity of Selected Peptide Halomethyl Ketones: Activity", "setting": "[1]", "result": "+++ (key: -: no activity; +/-: low activity; +: active at 100 μg/mL; ++: active at 50 μg/mL; +++: active at 10 μg/mL; ++++: active at <5 μg/mL)"}]}, {"compound": "Z--Phe--Gly--Lys--LeuCH2 Cl ({code Z}-FGKL-CH2Cl; reading uncertain; also: printed as Z--Phe--Gly--Lys--LeuCH2 Cl)", "values": [{"measurement": "Comparative Experiments Involving Other Peptide Halomethyl Ketones: Activity", "setting": "[1]", "result": "+ (key: -: no activity; +/-: low activity; +: active at 100 μg/mL; ++: active at 50 μg/mL; +++: active at 10 μg/mL; ++++: active at <5 μg/mL)"}]}, {"compound": "Z-Phe-Gly-Leu-LeuCH2 Cl ({code Z}-FGLL-CH2Cl; reading uncertain; also: printed as Z-Phe-Gly-Leu-LeuCH2 Cl) [Z--Phe--Gly--Leu--LeuCH2 Cl]", "values": [{"measurement": "Protease-Inhibiting Activity of Selected Peptide Halomethyl Ketones: Activity", "setting": "[1]", "result": "++++ (key: -: no activity; +/-: low activity; +: active at 100 μg/mL; ++: active at 50 μg/mL; +++: active at 10 μg/mL; ++++: active at <5 μg/mL)"}, {"measurement": "Antiviral activity, as scored by 90% plaque reduction, noted at concentration", "setting": "human rhinovirus type 1A [3]; HeLa cells, agar overlay", "result": 1, "unit": "µg/mL"}, {"measurement": "concentration at which cytotoxicity was first detected", "setting": "human HeLa-O cells", "result": "about 15 μg/mL"}]}, {"compound": "Z-- Phe--Gly--Pro--LeuCH2 Cl ({code Z}-FGPL-CH2Cl; reading uncertain; also: printed as Z-- Phe--Gly--Pro--LeuCH2 Cl)", "values": [{"measurement": "Protease-Inhibiting Activity of Selected Peptide Halomethyl Ketones: Activity", "setting": "[1]", "result": "++ (key: -: no activity; +/-: low activity; +: active at 100 μg/mL; ++: active at 50 μg/mL; +++: active at 10 μg/mL; ++++: active at <5 μg/mL)"}]}, {"compound": "Z--Ala--Gly--Ala--LeuCH2 Cl ({code Z}-AGAL-CH2Cl; reading uncertain; also: printed as Z--Ala--Gly--Ala--LeuCH2 Cl)", "values": [{"measurement": "Comparative Experiments Involving Other Peptide Halomethyl Ketones: Activity", "setting": "[1]", "result": "+/-"}]}]}
